Assay results as given in patent US12589097B2, “Apilimod compositions and methods of use” (ORPHAI THERAPEUTICS INC., priority 2023, dated 2026).

Experiments:
[1] = tested on: Glycoprotein Nonmetastatic Melanoma Protein B (GPNMB); test: SOMAscan aptamer-based proteomics of plasma from patients dosed with apilimod (NCT02594384); assay type: in vivo, human; details: pre-dose vs day 15 after 14 days of dosing, FDR<0.05
Source text: A SOMAscan™ platform was used to identify analytes that were changed in the plasma of patients upon apilimod dosing. SOMAscan™ is an aptamer-based proteomics assay from SomaLogic capable of measuring 1,305 human protein analytes in serum or plasma with high sensitivity and specificity. Plasma from patients enrolled in the clinical trial designated NCT02594384 was collected pre-dose (before the first administration of apilimod) and after 14 days of dosing with apilimod, on day 15. Using differential protein analysis with a paired experimental design for linear models of microarray data using the “Limma R” software package described by Ritchie et al. in Nucleic Acids Research, 43(7), pp. e47 (2015).

[2] = Observation of adverse effects of treatment in rNLS8 mice; assay type: in vivo, mouse; details: 60 mg/kg p.o. BID for 24 days
Procedure: (§1) For the evaluation, all mice received either apilimod dimesylate (60 mg/kg)) or vehicle two times daily for 24 days, starting at […] of age, 3 days prior to disease initiation. Both groups had routine clinical assessments 3 times per week. Twenty-four (24) total mice were assigned to one of two groups, as outlined in Table 1.
(§2) Animals were weighed at the beginning of the experiment, and then, for dosing, daily for the duration of the study. Animals were also monitored daily, and clinical assessments were performed three times per week (Mondays, Wednesday, and Fridays) from disease initiation to the end of the study. Each clinical assessment day, animals were assessed for signs of motor dysfunction, including signs of tremor, hindlimb clasping, hindlimb paralysis, grill agility, and overall well-being. Each of these signs were scored on a scale of 0-3: normal/no dysfunction (0), mild (1), moderate (2), or severe (3), as summarized in Table 2.
Apilimod dimesylate was received at ambient temperature in a 50 mL tube and protected from light. The treatments were administered p.o. twice per day (BID) for a period of 24 days Each daily dose was performed within the same ˜2-hour time frame, with approximately 6 hours between doses.

[3] = tested on: TDP-43 (rNLS8) mouse model of ALS; test: Clinical assessment of motor dysfunction in TDP-43 (rNLS8) mouse model of ALS; assay type: in vivo; details: body weight and clinical scores taken together
Procedure: as §1, with “1. […]” for “1.”
as §2, with “2. […]” for “2.”
(§3) All summary statistics are presented as mean and standard deviation. […] The data were first assessed for normality with a normal probability plot, followed by assessment of homogeneity of variance, if appropriate. […]
Progression of clinical scores (also herein “severity score”) throughout the study, following removal of Full DOX was evaluated. […]

[4] = Body weight (percent baseline) in TDP-43 (rNLS8) mouse model of ALS; assay type: in vivo; details: Group B (60 mg/kg p.o. BID) vs vehicle Group A
Procedure: as §1, with “1. […]” for “1.”
as §2, with “2. […]” for “2.”
as §3

Cc1cccc(/C=N/Nc2cc(N3CCOCC3)nc(OCCc3ccccn3)n2)c1 [apilimod]
average fold change of plasma (shed) GPNMB [1]: 4 fold
adverse effects of treatment [2]: No adverse effects
functional deficits in TDP-43 ALS animal model [3]: ameliorates functional deficits
percent baseline body weight vs vehicle at every clinical assessment visit [4]: tendency for higher percent baseline body weight
